Eight molecules from patent US9832999B1, “Bicyclic compounds as pest control agents” (BAYER CROPSCIENCE AKTIENGESELLSCHAFT, priority 2014, dated 2017) can be followed below.

One assay concerns Myzus persicae. Briefly: Myzus persicae - spray test. Type of assay: in vivo. Conditions: foliar, 144 h, application rate 500 g/ha, after 6 days, Chinese cabbage leaf discs, all stages of green peach aphid, 100% = all aphids killed, read-out: efficacy. On the procedure:
To produce further test concentrations, the formulation is diluted with emulsifier-containing water.

Another assay relates to Musca domestica. Briefly: Musca domestica test. Conditions: application rate 100 ppm; after 2 days; adult houseflies; 100% = all flies killed. Type of assay: in vivo. As for the experimental part: • Solvent: dimethyl sulfoxide
To produce a suitable preparation of active compound, 10 mg of active compound are mixed with 0.5 ml of dimethyl sulfoxide, and the concentrate is diluted with water to the desired concentration.
Vessels containing a sponge treated with sugar solution and the active compound formulation of the desired concentration are populated with 10 adult houseflies (Musca domestica).
After 2 days, the kill in % is determined. 100% means that all of the flies have been killed; 0% means that none of the flies have been killed.

Structures are written as SMILES.

As to `CON(C)C(=O)c1cc2cn(-c3cccnc3)nc2cn1` [Compound 11], the pest or weed control at 500 g/ha with Myzus persicae turned out to be 90%.
Take `CNC(=O)c1cc2cn(-c3cnccn3)nc2cn1` [Compound 14]: in the assay with Musca domestica, the “efficacy (kill)” value stood at 80%. Moreover, the pest or weed control at 500 g/ha with Myzus persicae was 90%.
For the molecule `CNC(=O)c1cc2cn(-c3cncc(F)c3)nc2cn1` [Compound 19], in the assay on Myzus persicae, the pest or weed control at 500 g/ha turned out to be 90%.
As to `CN(C)C(=O)c1cc2cn(-c3cncc(F)c3)nc2cn1` [Compound 20], the pest or weed control at 500 g/ha in the assay with Myzus persicae worked out at 90%.
On the same count and under the same terms, next, `CON(C)C(=O)c1cc2cn(-c3cncc(F)c3)nc2cn1` [Compound 26]: 90%; `O=C(NC1CC1)c1cc2cn(-c3cccnc3)nc2cn1` [Compound 29]: 90%; `CCNC(=O)c1cc2cn(-c3cccnc3)nc2cn1` [Compound 31]: 90%.
On the same count and under the same terms, as for `O=C(NCC(F)F)c1cc2cn(-c3cccnc3)nc2cn1` [Compound 36], the figure is 90%.
